Results from patent publication US7262336B2 (priority 2000, dated 2007).

Assays:
Format in all cases: in vivo, rat
[1] = tested on: Gαq mutant transgenic rats; assay: Stimulant-induced locomotor activity (d-amphetamine, phencyclidine) in Gq transgenic rats
Description: (§1) In general, 10 male and 10 female heterozygotes of each line were compared with a similar number of wild-type littermate controls. Testing began at 7-8 weeks of age. Subjects were individually housed in hanging metal mesh cages with ad libitum access to food and water under a 12 h light/dark cycle. For Lines 76, 67, and 11 the subjects were maintained on powdered rodent chow for the duration of the study. Subjects from Lines 58 and 75 were adapted to powdered chow for the feeding studies and then maintained on that chow for the remainder of the study. Subjects were evaluated in a series of tests outlined below over a period of approximately 12 weeks.
To complement the observations of motor activity obtained using the open field test, heterozygotes and wildtype littermate controls were evaluated for spontaneous locomotor activity using an automated data collection system and a more extended test period. Data in this test was collected in multiple time bins over the test period allowing for some assessment of both the exploratory activity level in a novel environment as well as the rate of habituation to that environment. Having habituated the subjects, a stimulant was administered to determine the responsiveness of these subjects to the stimulant using locomotor activity as a measure. In this study we used an indirect-acting dopamine agonist, d-amphetamine, and a NMDA excitatory amino acid antagonist, phencyclidine, to induce locomotion. The ability of d-amphetamine to increase motor activity is dependent on dopaminergic neurotransmission in the striatum, in particular the nucleus accumbens, but can be influenced by other neurotransmitters. The ability of phencyclidine to induce locomotor activity is dependent on changes in both dopamine and glutatmate neurotransmission (Adams and Moghaddam, J. Neurosci. 1998, 18:5545-54). The differences in locomotor activity observed under spontaneous and stimulant-induced conditions in heterozygotes vs. wildtype littermate controls are summarized in FIGS. 15 and 16.
Subjects were placed in activity monitors (Model RXYZCM16, Omnitech, Columbus, Ohio) equipped with infrared beams to detect movements on both the horizontal (16×16 in field) and vertical axes. The testing room was equipped with white noise. Following a 60 min habituation period during which activity was monitored for differences in spontaneous locomotor activity, each subject was treated with a dose of 1 mg/kg d-amphetamine ip and returned to the activity monitor. Activity induced by d-amphetamine was monitored for 2 h. On a separate occasion, these same subjects were placed in the activity monitors and allowed to habituate for 60 min. Following this re-habituation, each subject was treated with 10 mg/kg phencyclidine ip and monitored for activity for an additional 4 h. The doses of d-amphetamine and phencyclidine were selected based on other studies as doses that induce a hyperactive state in normal rats (see Adams and Moghaddam, supra; Krebs-Thomson et al., Fur. J. Pharmacol. 1998, 343:135-43). Data were analyzed using LSD following a 2-way ANOVA (transgene×time) with one repeated measure (time). Outcomes were determined significant at p<0.05.

[2] = tested on: Gαq mutant transgenic rats; assay: DOI induced headshakes and lethality in Gq transgenic rats; details: for number of headshakes: 0.1 mg/kg
Description: as §1
Wild type and transgenic rats were injected ip with either vehicle or DOI (0.001, 0.01, 0.1, 1.0 mg/kg) and were then housed singly in clear Plexiglas chambers (10″×18″×8″) for observational studies. A trained observer counted the number of headshakes for each rat during 2 observation periods (0-30 min; 45-75 min).
Assessing the effect of the RGS insensitive Gαq mutant transgene on receptors coupled via Gαq to the IP3 pathway in transgenic rats was an interest. 5-HT2A agonists produce large increases in headshakes in rats via this pathway. DOI (−1[2,5-dimethoxy-4-iodophenyl]-2-aminopropane) is a 5-HT2A receptor agonist, which increases headshakes in rats, and it has been used to investigate this pathway (Wettstein et al., 1999). DOI administration was used herein to determine if 5-HT2A agonist activity was modified in transgenic rats; results are shown in FIG. 27.

[3] = tested on: normal Sprague-Dawley rats; assay: DOI lethality in normal rats (separate experiments); details: doses as high as 30 mg/kg
Description: Higher doses of DOI (3-10 mg/kg) were required to produce similar effects in line 11 (data not shown).

[4] = tested on: Gαq mutant transgenic rats; assay: Food intake after RO 60-0175 in Gq transgenic rats vs wild-type littermates
Description: as §1
Wild-type and transgenic rats were maintained on powdered chow in their home cages. Rats were fasted for 24 h prior to evaluation of food intake. Food intake was measured at 2, 4, and 24 h timepoints following ip injection of vehicle, 1, or 1.7 mg/kg RO 60-0175. Experimental sessions were generally conducted on Tues and Fri with 24 h fasts initiating on Mon and Thurs. […] 5-HT2C agonists decrease food intake via a Gαq modulated pathway. Studies using the selective 5-HT2C agonist RO 60-0175 were conducted to determine if 5-HT2C agonist activity was modified in transgenic rats.
To account for the baseline differences in food intake between wild-type and transgenic rats, the effects of RO 60-0175 were calculated as a percentage of the vehicle food intake. The effects of 1.7 mg/kg RO 60-0175 were greater in both males and females for transgenic heterozygotes for lines 75 and 67 (FIG. 7). The effects of 1.0 mg/kg RO 60-0175 were greater in males of line 67 as well (data not shown). […] There was no change in the effects of RO 60-0175 in rats from lines 58, 76, or 11.

[5] = tested on: Gαq mutant transgenic rats; assay: Pilocarpine-induced cholinergic signs and convulsions in Gq transgenic rats
Description: Muscarinic cholinergic agonists produce a series of cholinergic signs (chromodacryrhea, salivation, diarrhea, hypoactivity, tremors, foaming, convulsions and death) at high doses via a Gαq modulated pathway. Studies were conducted with the muscarinic agonist pilocarpine to determine if muscarinic agonist activity was modified in the transgenic rats (FIG. 28). Studies were conducted with the muscarinic agonist pilocarpine to determine if muscarinic agonist activity was modified by acute lithium (FIG. 29 or chronic lithium (FIG. 30). Both acute and chronic lithium potentiated the cholinergic signs produced by pilocarpine.

C[C@H](N)Cc1ccccc1 [d-amph, d-amphetamine]
amphetamine-induced locomotor activity, heterozygotes vs wildtype ([1]; 1 mg/kg ip, males of Lines 58, 75, 67, 11 and females of Line 67, 76, 11, but not males of Line 76): reduced amphetamine-induced locomotor activity | Indirect DA agonist (d-amph) Locomotor Activity ([1]; Gαq mutant Transgenics, cell wraps: All lines ↓ hyperactivity): All lines ↓

c1ccc(C2(N3CCCCC3)CCCCC2)cc1 [PCP, phencyclidine]
locomotor activity induced by phencyclidine, heterozygotes vs wildtype ([1]; 10 mg/kg ip, Line 58 males, delayed in the onset): increase in locomotor activity | phencyclidine locomotor activity, heterozygotes vs wildtype ([1]; 10 mg/kg ip, Line 67 males): reduced | locomotor activity induced by phencyclidine, heterozygotes vs wildtype ([1]; 10 mg/kg ip, Line 76 females, Line 11 males and females, to a lesser degree Line 67 females): delayed hyperactivity | phencyclidine-induced activity, heterozygotes vs wildtype ([1]; 10 mg/kg ip, Line 76 male (p=0.07)): slight trend toward a similar reduction | Noncompetitive NMDA antagonist (PCP) Locomotor Activity ([1]; Gαq mutant Transgenics, cell wraps: 4 of 5 lines ↑ hyperactivity (delayed)): 4 of 5 lines ↑

COc1cc(CC(C)N)c(OC)cc1I (stereo not shown) [DOI, −1[2,5-dimethoxy-4-iodophenyl]-2-aminopropane]
number of headshakes ([2]; line 67 male transgenic heterozygote rats): trend toward increased headshakes | number of headshakes ([2]; line 75 male transgenic heterozygote rats): increased | lethality ([2]; 1 mg/kg, transgenic rats from lines 58, 75, 67 and 76): found dead within 24 hours | 5-HT2A Agonist (DOI) Induction of Head Shakes ([2]; Gαq mutant Transgenics, cell wraps: 4 of 5 lines ↓ headshakes): 4 of 5 lines ↓ | 5-HT2A Agonist (DOI) Flattened Body Posture, Convulsions, Death ([2]; Gαq mutant Transgenics, cell wraps: FBP, conv and death at 1.0 mg/kg, higher doses required for line 11): 4 of 5 lines show FBP, | doses required to produce similar effects (lethality) ([2]; transgenic line 11): 3 to 10 mg/kg | lethality [3]: did not result in lethality

C[C@H](N)Cn1ccc2cc(F)c(Cl)cc21 [RO 60-0175]
effect on food intake as percentage of vehicle food intake, transgenic vs wild-type ([4]; 1.0 mg/kg ip, line 75 females): greater in wildtype than in transgenic rats | effect on food intake as percentage of vehicle food intake, transgenic heterozygotes vs wild-type ([4]; 1.0 mg/kg ip, males of line 67): greater | effect on food intake as percentage of vehicle food intake, transgenic heterozygotes vs wild-type ([4]; 1.7 mg/kg ip, males and females, lines 75 and 67): greater | 5-HT2C Agonist (RO60-0175) Inhibition of Food Intake ([4]; Gαq mutant Transgenics, cell wraps: 2 of 5 lines ↑sensitivity to RO 60-0175): 2 of 5 lines | change in effect on food intake, transgenic vs wild-type ([4]; lines 58, 76, or 11): no change

CC[C@@H]1C(=O)OC[C@@H]1Cc1cncn1C [Pilocarpine, pilocarpine]
Muscarinic Agonist (Pilocarpine) Convulsions, Death ([5]; Gαq mutant Transgenics, cell wraps: 3 of 3 lines tested conv and death (10–30 mg/kg)): 3 of 3 lines tested conv | Muscarinic Agonist (Pilocarpine) Induction of cholinergic signs ([5]; Gαq mutant Transgenics, cell wraps: 3 of 3 lines tested ↑ cholinergic signs): 3 of 3 lines tested ↑ | sensitivity of the transgenic rats to the muscarinic agonist ([5]; transgenic rats): increased sensitivity
